These results are taken from US10179777B2, “3-(1H-benzimidazol-2-yl)-1H-pyridin-2-one derivatives” (MERCK PATENT GMBH, priority 2015, dated 2019).

Test [1] has as its target T1, ALK5 (TGFβR1; GST-modified TGFBR1 (200-503)) (Homo sapiens, UniProt P36897).
T1 construct: Using GST-Modified TGFBR1 (200-503); GST
T1 sequence (P36897 200-503): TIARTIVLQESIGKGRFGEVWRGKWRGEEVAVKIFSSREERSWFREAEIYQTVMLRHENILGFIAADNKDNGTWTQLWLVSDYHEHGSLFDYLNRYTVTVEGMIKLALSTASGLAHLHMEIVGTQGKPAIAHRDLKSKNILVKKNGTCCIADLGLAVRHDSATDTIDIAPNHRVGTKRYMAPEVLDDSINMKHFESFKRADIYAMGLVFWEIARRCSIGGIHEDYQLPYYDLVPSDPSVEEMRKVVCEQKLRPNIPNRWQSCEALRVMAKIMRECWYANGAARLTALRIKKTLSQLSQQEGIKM
Briefly: ALK5 kinase inhibition assay (33P-ATP filter binding, Reaction Biology). The settings on record: casein substrate, 200 μM ATP. Format: biochemical. How it is done:
(§1) The protein sequences of the kinases targeted and accompanying information are described in publically available data base http://www.uniprot.org/uniprot/for ALK1 www.uniprot.org/uniprot/P37023, for ALK2 www.uniprot.org/uniprot/Q04771 and for ALK5 www.uniprot.org/uniprot/P36897. IC50 determination of the novel inhibitors described was performed at Reaction Biology Corp., Malvern, Pa., USA, with assay conditions open to public at www.reactionbiology.com/webapps/site/KinaseDetail.aspx?page=Kinases&id=1, and www.reactionbiology.com/webapps/site/Kinase Assay Protocol.aspx. In addition, they were specified previously in Anastassiadis et al. Nat. Biotechnol. 29(11): 1039-1045. doi:10.1038/nbt.2017.
A3) ALK5 Kinase Inhibition Assay Was Performed Similar to Procedures A1 and A2 Using GST-Modified TGFBR1 (200-503) and 1 mg/ml Casein as Substrate at 200 μM ATP.

Test [2] deals with T2, ALK1 (GST-modified kinase domain ACVRL1 (139-503)) (Homo sapiens, UniProt P37023).
T2 construct: N-terminally GST-modified kinase domain ACVRL1 (139-503); GST (N)
T2 sequence (P37023 139-503): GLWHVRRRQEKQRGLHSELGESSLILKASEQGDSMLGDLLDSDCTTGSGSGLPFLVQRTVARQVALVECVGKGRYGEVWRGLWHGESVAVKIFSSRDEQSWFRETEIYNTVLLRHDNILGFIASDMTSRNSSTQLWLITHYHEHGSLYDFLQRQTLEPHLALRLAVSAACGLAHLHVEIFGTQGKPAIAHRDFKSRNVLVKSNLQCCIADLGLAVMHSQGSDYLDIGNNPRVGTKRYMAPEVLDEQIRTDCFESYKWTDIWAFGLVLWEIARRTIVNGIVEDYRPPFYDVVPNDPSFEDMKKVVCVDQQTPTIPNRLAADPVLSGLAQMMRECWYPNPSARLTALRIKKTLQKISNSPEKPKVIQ
Briefly: ALK1 kinase inhibition assay (33P-ATP filter binding, Reaction Biology). Conditions: casein substrate, 100 μM ATP (Km ATP), 120 min ambient temperature. Format: biochemical. How it is done: as §1
A1) ALK1 Kinase Inhibition Assay
(§2) was performed with N-terminally GST-modified kinase domain ACVRL1 (139-503) and 20 mg/ml Casein as substrate in reaction buffer of 20 mM HEPES pH 7.5, 10 mM MgCl2, 1 mM EGTA, 0.02% Brij, 0.02 mg/ml BSA, 0.1 mM Na3VO4, 2 mM DTT, 1% DMSO. […] Reactions were carried out at ambient temperature for 120 min, followed by spotting of the reactions onto P81 ion exchange filter paper (Whatman Inc., Picataway, N.J., USA). Unbound phosphate was removed by extensive washing of filters in 0.75% phosphoric acid. After subtraction of background derived from control reactions without enzyme activity, kinase activity data was expressed as the percent remaining kinase activity in test samples compared to vehicle (DMSO) reactions. IC50 values and curve fits were obtained using Prism (GraphPad Software).

Test [3] has as its system ALK1-mediated SMAD1/5 phosphorylation in HUVEC cells. Briefly: Cell-based immunofluorescence assay for ALK1-mediated SMAD1/5 phosphorylation in HUVEC cells. The settings on record: Homo sapiens, 1.5 ng/ml BMP-9 with compound for 2 h, % nuclei with pSMAD1/5 signal, read-out: Smad 1/5 IC50. The source says: In vitro cell-based Immunofluorescence-Assay for identification of inhibitors of ALK1-mediated SMAD1/5 phosphorylation in HUVEC cells:
ALK1 is a type I cell-surface receptor for the TGF-β superfamily of ligands. In adults ALK1 is mainly expressed on activated endothelial cells, e.g. during wound healing or in tumor angiogenesis. BMP9 and BMP10 are high affinity ligands for ALK1.
BMP9 and BMP10 binding leads to the phosphorylation of so-called Smad1 at Ser463 and Ser465 in the carboxy-terminal motif SSXS, as well as Smad5 and Smad8 at their corresponding sites. These phosphorylated Smads dimerize with the coactivating Smad4 and translocate to the nucleus, where they stimulate transcription of target genes.
Primary endothelial cells (HUVEC: Human Umbilical Vein Endothelial Cells; supplier Promocell) are cultivated in the culture medium obtained from Promocell (with supplements corresponding to 5% FCS) for maximum 5 passages, seeded into black 384-well culture plates with clear bottom (3000 cells/well/30 μl), and incubated for 16-24 hours at 37° C., 5% CO2 and 90% rH.
The following day cells were serum-starved for 2-3 h in order to stop TGF-ß-mediated signalling derived from ligands present in FBS. 1.5 ng/ml BMP-9 was than added in parallel with test compounds for 2 h at 37° C., 5% CO2 in order to identify compounds which block functional activity of ALK1 leading to phosphorylation and nuclear translocation of SMAD1/5/8.
After fixation (15 min 4% Formaldehyd in PBS) and permeabilization (10 min 0.2% Triton X-100 in PBS) an indirect immunocytochemical staining is performed with a specific Phospho-Smad1/5 (Ser463/465) antibody (Cell Signaling #9516) and Alexa488-labelled secondary anti-rabbit-IgG-antibody. DNA staining with Propidium Iodide allowed parallel cell counting. Image acquisition and analysis was performed on an MDS ImageXpress Ultra confocal High Content Reader using the image analysis software MetaXpress. Final read-out were % nuclei with a pSMAD1/5 signal above a defined background.
The final DMSO concentration in the assay was 0.5%. DMSO-treated HUVEC cells served as neutral control (=0%) and cells treated with 10 μM of a reference inhibitor described in a patent served as inhibitor control (=−100%). Raw data were normalised to the neutral and inhibitory references. The assay was performed as dose response (10 compound dilutions, 1 nM-30 μM).

Test [4] has as its target T3, ALK2 (GST-modified kinase domain ACVR1(145-509)) (Homo sapiens, UniProt Q04771).
T3 construct: N-terminally GST-modified kinase domain ACVR1(145-509); GST (N)
T3 sequence (Q04771 145-509): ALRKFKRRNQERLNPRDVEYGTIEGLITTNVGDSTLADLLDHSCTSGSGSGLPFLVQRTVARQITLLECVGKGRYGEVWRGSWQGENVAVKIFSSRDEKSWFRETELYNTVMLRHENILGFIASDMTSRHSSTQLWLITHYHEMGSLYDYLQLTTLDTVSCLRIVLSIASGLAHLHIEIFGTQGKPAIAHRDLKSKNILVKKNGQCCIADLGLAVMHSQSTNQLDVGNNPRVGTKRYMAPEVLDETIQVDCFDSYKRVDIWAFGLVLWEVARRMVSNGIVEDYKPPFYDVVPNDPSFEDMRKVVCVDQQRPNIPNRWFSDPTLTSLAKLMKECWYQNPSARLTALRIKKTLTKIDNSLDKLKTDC
Description: ALK2 kinase inhibition assay (33P-ATP filter binding, Reaction Biology). It counts as biochemical. Conditions: casein substrate, 20 μM ATP (Km ATP), 120 min ambient temperature. The protocol:
as §1
A2) ALK2 Kinase Inhibition Assay
as §2, with “performed similar to procedure A1” for “performed”, “domain ACVR1(145-509)” for “domain ACVRL1 (139-503)”, “and 1” for “and 20”

Structures can show the parent of a compound that is named as a salt.

`CN1CCN(c2ccc3[nH]c(-c4cc(-c5ccc(F)c(CO)c5)c[nH]c4=O)nc3c2)CC1` [Compound A34, 5-(4-Fluoro-3-hydroxymethyl-phenyl)-3-[5-(4-methyl-piperazin-1-yl)-1H-benzimidazol-2-yl]-1H-pyridin-2-one]: the IC50 in test [1] is 4800 nM; in test [2], 30 nM; in test [3] it was 2000 nM; in test [4], 20 nM. On to `O=c1[nH]cc(-c2ccnc3ccoc23)cc1-c1nc2cc(N3CCNCC3)ccc2[nH]1` [Compound A18, 5-Furo[3,2-b]pyridin-7-yl-3-(5-piperazin-1-yl-1H-benzimidazol-2-yl)-1H-pyridin-2-one], for which the IC50 in test [3] worked out at 2000 nM. `O=c1[nH]cc(-c2ccnc3[nH]ccc23)cc1-c1nc2cc(N3CC4CCC(C3)N4)ccc2[nH]1` [Compound A46, 3-[6-(3,8-Diaza-bicyclo[3.2.1]oct-3-yl)-1H-benzimidazol-2-yl]-5-(1H-pyrrolo-[2,3-b]pyridin-4-yl)-1H-pyridin-2-one]: the IC50 in test [3] turned out to be 4400 nM. Same read-out and setting: the figure for `COCc1cccc(-c2c[nH]c(=O)c(-c3nc4cc(N5CCNCC5)ccc4[nH]3)c2)c1` [Compound A19, 5-(3-Methoxymethyl-phenyl)-3-(5-piperazin-1-yl-1H-benzimidazol-2-yl)-1H-pyridin-2-one] is 11000 nM; for `O=c1[nH]cc(-c2ccnc3ccccc23)cc1-c1nc2cc(N3CCOCC3)ccc2[nH]1` [Compound A9, 3-(6-Morpholin-4-yl-1H-benzimidazol-2-yl)-5-quinolin-4-yl-1H-pyridin-2-one] it is 5700 nM; for `Cc1[nH]c2ncccc2c1-c1c[nH]c(=O)c(-c2nc3cc(N4CCNCC4)ccc3[nH]2)c1` [Compound A45, 5-(2-Methyl-1H-pyrrolo[2,3-b]pyridin-3-yl)-3-(5-piperazin-1-yl-1H-benzimidazol-2-yl)-1H-pyridin-2-one] it is 5000 nM. Same read-out and setting: the result for `CN1C2CCC1CN(c1ccc3[nH]c(-c4cc(-c5ccnc6[nH]ccc56)c[nH]c4=O)nc3c1)C2` [Compound A53, 3-[6-(8-Methyl-3,8-diaza-bicyclo[3.2.1]oct-3-yl)-1H-benzimidazol-2-yl]-5-(1H-pyrrolo[2,3-b]pyridin-4-yl)-1H-pyridin-2-one] reads 2800 nM; that for `COc1ccc2[nH]c(-c3cc(-c4ccnc5[nH]ccc45)c[nH]c3=O)nc2c1` [Compound A42, 3-(5-Methoxy-1H-benzimidazol-2-yl)-5-(1H-pyrrolo[2,3-b]pyridin-4-yl)-1H-pyridin-2-one], 7900 nM.

As to `O=c1[nH]cc(-c2cc(CO)ccc2Cl)cc1-c1nc2cc(N3CCOCC3)ccc2[nH]1` [Compound A11, 5-(2-Chloro-5-hydroxymethyl-phenyl)-3-(5-morpholin-4-yl-1H-benzimidazol-2-yl)-1H-pyridin-2-one], the IC50 in test [3] worked out at 6500 nM.

As for `O=c1[nH]cc(-c2ccnc3ccccc23)cc1-c1nc2cc(N3CCNCC3)ccc2[nH]1` [Compound A14, 3-(6-Piperazin-1-yl-1H-benzimidazol-2-yl)-5-quinolin-4-yl-1H-pyridin-2-one], the IC50 in test [3] is 5700 nM.

Turning to `O=c1[nH]cc(-c2ccnc3[nH]ccc23)cc1-c1nc2cc(N3CCCNCC3)ccc2[nH]1` [Compound A47, 3-(5-[1,4]Diazepan-1-yl-1H-benzimidazol-2-yl)-5-(1H-pyrrolo[2,3-b]pyridin-4-yl)-1H-pyridin-2-one], the IC50 in test [1] amounted to 200 nM; in test [2], 1 nM; in test [4], 38 nM. Taken in the same sequence, the figures for `O=c1[nH]cc(-c2ccnc3[nH]ccc23)cc1-c1nc2cc(N3CCC(O)CC3)ccc2[nH]1` [Compound A38, 3-[5-(4-Hydroxy-piperidin-1-yl)-1H-benzimidazol-2-yl]-5-(1H-pyrrolo[2,3-b]-pyridin-4-yl)-1H-pyridin-2-one] were 320 nM, 3.7 nM and 19 nM. Taken in the same sequence, the figures for `O=c1[nH]cc(-c2ccc(F)c(CO)c2)cc1-c1nc2cc(N3CCCNCC3)ccc2[nH]1` [Compound A24, 3-(5-[1,4]Diazepan-1-yl-1H-benzimidazol-2-yl)-5-(4-fluoro-3-hydroxymethyl-phenyl)-1H-pyridin-2-one] were 6500 nM, 33 nM and 41 nM.

Regarding `CN1CCN(c2ccc3[nH]c(-c4cc(-c5cccc(CO)c5F)c[nH]c4=O)nc3c2)CC1` [Compound A37, 5-(2-Fluoro-3-hydroxymethyl-phenyl)-3-[5-(4-methyl-piperazin-1-yl)-1H-benzimidazol-2-yl]-1H-pyridin-2-one trifluoroacetate], the IC50 in test [1] was 2500 nM; in test [2] it was 4 nM; in test [4], 30 nM.
